Laboratory results from the NIST ThermoML archive (doi:10.1021/je201334p).
Numbers after ± are expanded uncertainties.

Columns and labels:
[1] = xn = mol fraction of the nth substance listed; details: 101 kPa, Liquid; for speed of sound: Sing-around technique in a fixed-path interferometer; for mass density: Vibrating tube method
[2] = refractive index (Na D-line) (dimensionless); xn = mol fraction of the nth substance listed; details: 101 kPa, Liquid, Standard Abbe refractometry

SMILES: CCCCn1cc[n+](C)c1.O=S(=O)([O-])C(F)(F)F [1-butyl-3-methylimidazolium trifluoromethanesulfonate] + O
- speed of sound ([1]; 288.15 K, x2 = 0): 1414.3 ± 1.4 m/s
- speed of sound ([1]; 288.15 K, x2 = 0.1348): 1419.7 ± 1.3 m/s
- speed of sound ([1]; 288.15 K, x2 = 0.2028): 1422.9 ± 1.2 m/s
- speed of sound ([1]; 288.15 K, x2 = 0.2056): 1423.2 ± 1.2 m/s
- speed of sound ([1]; 288.15 K, x2 = 0.3083): 1429.3 ± 1.2 m/s
- speed of sound ([1]; 288.15 K, x2 = 0.4985): 1445 ± 1.1 m/s
- speed of sound ([1]; 288.15 K, x2 = 0.6062): 1458 ± 1.1 m/s
- speed of sound ([1]; 288.15 K, x2 = 0.7015): 1473.8 ± 1 m/s
- speed of sound ([1]; 288.15 K, x2 = 0.8064): 1496.3 ± 1 m/s
- speed of sound ([1]; 288.15 K, x2 = 0.8998): 1523.9 ± 1 m/s
- speed of sound ([1]; 288.15 K, x2 = 0.9309): 1533.1 ± 1 m/s
- speed of sound ([1]; 288.15 K, x2 = 0.9548): 1540 ± 1 m/s
- mass density ([1]; 288.15 K, x2 = 0): 1307.5 ± 0.63 kg/m3
- mass density ([1]; 288.15 K, x2 = 0.1348): 1303.64 ± 0.53 kg/m3
- mass density ([1]; 288.15 K, x2 = 0.2028): 1301.3 ± 0.48 kg/m3
- mass density ([1]; 288.15 K, x2 = 0.2056): 1301.2 ± 0.48 kg/m3
- mass density ([1]; 288.15 K, x2 = 0.3083): 1296.7 ± 0.41 kg/m3
- mass density ([1]; 288.15 K, x2 = 0.4985): 1284.57 ± 0.31 kg/m3
- mass density ([1]; 288.15 K, x2 = 0.6062): 1273.42 ± 0.27 kg/m3
- mass density ([1]; 288.15 K, x2 = 0.7015): 1258.59 ± 0.23 kg/m3
- mass density ([1]; 288.15 K, x2 = 0.8064): 1231.3 ± 0.2 kg/m3
- mass density ([1]; 288.15 K, x2 = 0.8998): 1180.1 ± 0.16 kg/m3
- mass density ([1]; 288.15 K, x2 = 0.9309): 1149.84 ± 0.15 kg/m3
- mass density ([1]; 288.15 K, x2 = 0.9548): 1116.26 ± 0.15 kg/m3
- speed of sound ([1]; 298.15 K, x2 = 0): 1391.4 ± 1.4 m/s
- speed of sound ([1]; 298.15 K, x2 = 0.1348): 1396.7 ± 1.3 m/s
- speed of sound ([1]; 298.15 K, x2 = 0.2028): 1400.2 ± 1.2 m/s
- speed of sound ([1]; 298.15 K, x2 = 0.2056): 1400.9 ± 1.2 m/s
- speed of sound ([1]; 298.15 K, x2 = 0.3083): 1406.7 ± 1.2 m/s
- speed of sound ([1]; 298.15 K, x2 = 0.4985): 1422.8 ± 1.1 m/s
- speed of sound ([1]; 298.15 K, x2 = 0.6062): 1436.4 ± 1.1 m/s
- speed of sound ([1]; 298.15 K, x2 = 0.7015): 1453.1 ± 1 m/s
- speed of sound ([1]; 298.15 K, x2 = 0.8064): 1478.8 ± 1 m/s
- speed of sound ([1]; 298.15 K, x2 = 0.8998): 1513.4 ± 1 m/s
- speed of sound ([1]; 298.15 K, x2 = 0.9309): 1527.6 ± 1 m/s
- speed of sound ([1]; 298.15 K, x2 = 0.9548): 1540.1 ± 1 m/s
- mass density ([1]; 298.15 K, x2 = 0): 1299.55 ± 0.62 kg/m3
- mass density ([1]; 298.15 K, x2 = 0.1348): 1295.68 ± 0.52 kg/m3
- mass density ([1]; 298.15 K, x2 = 0.2028): 1293.3 ± 0.47 kg/m3
- mass density ([1]; 298.15 K, x2 = 0.2056): 1293.22 ± 0.47 kg/m3
- mass density ([1]; 298.15 K, x2 = 0.3083): 1288.66 ± 0.41 kg/m3
- mass density ([1]; 298.15 K, x2 = 0.4985): 1276.45 ± 0.31 kg/m3
- mass density ([1]; 298.15 K, x2 = 0.6062): 1265.25 ± 0.26 kg/m3
- mass density ([1]; 298.15 K, x2 = 0.7015): 1250.44 ± 0.23 kg/m3
- mass density ([1]; 298.15 K, x2 = 0.8064): 1223.33 ± 0.2 kg/m3
- mass density ([1]; 298.15 K, x2 = 0.8998): 1172.98 ± 0.16 kg/m3
- mass density ([1]; 298.15 K, x2 = 0.9309): 1143.39 ± 0.15 kg/m3
- mass density ([1]; 298.15 K, x2 = 0.9548): 1110.62 ± 0.15 kg/m3
- speed of sound ([1]; 308.15 K, x2 = 0): 1369.1 ± 1.4 m/s
- speed of sound ([1]; 308.15 K, x2 = 0.1348): 1374.8 ± 1.3 m/s
- speed of sound ([1]; 308.15 K, x2 = 0.2028): 1378.1 ± 1.2 m/s
- speed of sound ([1]; 308.15 K, x2 = 0.2056): 1379.4 ± 1.2 m/s
- speed of sound ([1]; 308.15 K, x2 = 0.3083): 1384.6 ± 1.2 m/s
- speed of sound ([1]; 308.15 K, x2 = 0.4985): 1400.9 ± 1.1 m/s
- speed of sound ([1]; 308.15 K, x2 = 0.6062): 1414.8 ± 1 m/s
- speed of sound ([1]; 308.15 K, x2 = 0.7015): 1432 ± 1 m/s
- speed of sound ([1]; 308.15 K, x2 = 0.8064): 1460 ± 1 m/s
- speed of sound ([1]; 308.15 K, x2 = 0.8998): 1500.5 ± 1 m/s
- speed of sound ([1]; 308.15 K, x2 = 0.9309): 1519.2 ± 1 m/s
- speed of sound ([1]; 308.15 K, x2 = 0.9548): 1536.7 ± 1 m/s
- mass density ([1]; 308.15 K, x2 = 0): 1291.62 ± 0.61 kg/m3
- mass density ([1]; 308.15 K, x2 = 0.1348): 1287.74 ± 0.51 kg/m3
- mass density ([1]; 308.15 K, x2 = 0.2028): 1285.33 ± 0.47 kg/m3
- mass density ([1]; 308.15 K, x2 = 0.2056): 1285.23 ± 0.46 kg/m3
- mass density ([1]; 308.15 K, x2 = 0.3083): 1280.65 ± 0.4 kg/m3
- mass density ([1]; 308.15 K, x2 = 0.4985): 1268.32 ± 0.31 kg/m3
- mass density ([1]; 308.15 K, x2 = 0.6062): 1257.08 ± 0.26 kg/m3
- mass density ([1]; 308.15 K, x2 = 0.7015): 1242.22 ± 0.23 kg/m3
- mass density ([1]; 308.15 K, x2 = 0.8064): 1215.23 ± 0.21 kg/m3
- mass density ([1]; 308.15 K, x2 = 0.8998): 1165.56 ± 0.16 kg/m3
- mass density ([1]; 308.15 K, x2 = 0.9309): 1136.56 ± 0.15 kg/m3
- mass density ([1]; 308.15 K, x2 = 0.9548): 1104.51 ± 0.16 kg/m3
- refractive index ([2]; 288.15 K, x2 = 0): 1.44032 ± 0.00053
- refractive index ([2]; 288.15 K, x2 = 0.1348): 1.43903 ± 0.00051
- refractive index ([2]; 288.15 K, x2 = 0.2028): 1.43815 ± 0.00051
- refractive index ([2]; 288.15 K, x2 = 0.2056): 1.4381 ± 0.00051
- refractive index ([2]; 288.15 K, x2 = 0.3083): 1.43654 ± 0.00049
- refractive index ([2]; 288.15 K, x2 = 0.4985): 1.43224 ± 0.00047
- refractive index ([2]; 288.15 K, x2 = 0.6062): 1.42835 ± 0.00047
- refractive index ([2]; 288.15 K, x2 = 0.7015): 1.42301 ± 0.00044
- refractive index ([2]; 288.15 K, x2 = 0.8064): 1.41332 ± 0.00041
- refractive index ([2]; 288.15 K, x2 = 0.8998): 1.39564 ± 0.0004
- refractive index ([2]; 288.15 K, x2 = 0.9309): 1.38516 ± 0.00041
- refractive index ([2]; 288.15 K, x2 = 0.9548): 1.37365 ± 0.00045
- refractive index ([2]; 298.15 K, x2 = 0): 1.43755 ± 0.00053
- refractive index ([2]; 298.15 K, x2 = 0.1348): 1.43626 ± 0.00052
- refractive index ([2]; 298.15 K, x2 = 0.2028): 1.43535 ± 0.00051
- refractive index ([2]; 298.15 K, x2 = 0.2056): 1.4353 ± 0.00051
- refractive index ([2]; 298.15 K, x2 = 0.3083): 1.43373 ± 0.00051
- refractive index ([2]; 298.15 K, x2 = 0.4985): 1.4294 ± 0.0005
- refractive index ([2]; 298.15 K, x2 = 0.6062): 1.42546 ± 0.0005
- refractive index ([2]; 298.15 K, x2 = 0.7015): 1.42021 ± 0.00049
- refractive index ([2]; 298.15 K, x2 = 0.8064): 1.41072 ± 0.00048
- refractive index ([2]; 298.15 K, x2 = 0.8998): 1.39323 ± 0.00046
- refractive index ([2]; 298.15 K, x2 = 0.9309): 1.3829 ± 0.00045
- refractive index ([2]; 298.15 K, x2 = 0.9548): 1.37157 ± 0.00045
- refractive index ([2]; 308.15 K, x2 = 0): 1.43475 ± 0.00053
- refractive index ([2]; 308.15 K, x2 = 0.1348): 1.43343 ± 0.00052
- refractive index ([2]; 308.15 K, x2 = 0.2028): 1.43259 ± 0.00051
- refractive index ([2]; 308.15 K, x2 = 0.2056): 1.43253 ± 0.00051
- refractive index ([2]; 308.15 K, x2 = 0.3083): 1.4309 ± 0.00053
- refractive index ([2]; 308.15 K, x2 = 0.4985): 1.42655 ± 0.00054
- refractive index ([2]; 308.15 K, x2 = 0.6062): 1.42268 ± 0.00053
- refractive index ([2]; 308.15 K, x2 = 0.7015): 1.41759 ± 0.00056
- refractive index ([2]; 308.15 K, x2 = 0.8064): 1.40803 ± 0.0007
- refractive index ([2]; 308.15 K, x2 = 0.8998): 1.39103 ± 0.00059
- refractive index ([2]; 308.15 K, x2 = 0.9309): 1.38091 ± 0.00052
- refractive index ([2]; 308.15 K, x2 = 0.9548): 1.36969 ± 0.0007
